Measured values: the supplement of paper PMC10307832

How the values were obtained:
Assay in all cases: relative viability (nuclei count vs DMSO), 5 days (fraction); higher = more cells survive
[1] = compound: C(C(=O)C(=O)O)Br [Bromopyruvate] + Cc1nc(NC(=O)N2CCC[C@H]2C(N)=O)sc1-c1ccnc(C(C)(C)C(F)(F)F)c1 [Alpelisib] (partner 2 µM)
In short: (§1)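 Each reported value is a median over duplicate plates. It expresses relative viability: treated-well nuclei count divided by vehicle-well nuclei count. Lung cancer cell lines in 1536-well plates were dosed by pin tool a day after seeding, alone with one drug or with a fixed anchor-drug dose plus five library-drug doses (not always all listed) in √10 steps, and nuclei were counted after 5 days.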

[2] = compound: C(C(=O)C(=O)O)Br [Bromopyruvate] + O=C(c1cc(Cc2n[nH]c(=O)c3ccccc23)ccc1F)N1CCN(C(=O)C2CC2)CC1 [Olaparib] (partner 8 µM)
In short: as §1

[3] = compound: CC(O)(CS(=O)(=O)c1ccc(F)cc1)C(=O)Nc1ccc(C#N)c(C(F)(F)F)c1 [Bicalutamide] + CC(C)C[C@H](NC(=O)[C@H](Cc1ccccc1)NC(=O)c1cnccn1)B(O)O [Bortezomib] (partner 0.002 µM)
In short: as §1

[4] = compound: CC(O)(CS(=O)(=O)c1ccc(F)cc1)C(=O)Nc1ccc(C#N)c(C(F)(F)F)c1 [Bicalutamide] + C[C@]1(O)C[C@@H](c2nc(-c3ccc4ccc(-c5ccccc5)nc4c3)c3c(N)nccn32)C1 [Linsitinib] (partner 1 µM)
In short: as §1

| Cell Line | relative viability ([1]; first compound 1 µM) | relative viability ([1]; first compound 3.162 µM) | relative viability ([1]; first compound 10 µM) | relative viability ([1]; first compound 31.62 µM) | relative viability ([1]; first compound 100 µM) | relative viability ([2]; first compound 1 µM) | relative viability ([2]; first compound 3.162 µM) | relative viability ([2]; first compound 10 µM) | relative viability ([2]; first compound 31.62 µM) | relative viability ([2]; first compound 100 µM) | relative viability ([3]; first compound 0.08 µM) | relative viability ([3]; first compound 0.253 µM) | relative viability ([3]; first compound 0.8 µM) | relative viability ([3]; first compound 2.53 µM) | relative viability ([4]; first compound 0.08 µM) | relative viability ([4]; first compound 0.253 µM) | relative viability ([4]; first compound 0.8 µM) | relative viability ([4]; first compound 2.53 µM) |
| --- | --- | --- | --- | --- | --- | --- | --- | --- | --- | --- | --- | --- | --- | --- | --- | --- | --- | --- |
| NCI-H2087 | 1.03 | 1.14 | 1.02 | 1.25 | 0.829 | 0.6 | 0.574 | 0.391 | 0.573 | 0.451 | 0.785 | 0.825 | 1.04 | 0.75 | 1.03 | 1.07 | 0.95 | 0.77 |
| NCI-H838 | 1.01 | 0.983 | 1.01 | 0.981 | 1.13 | 0.758 | 0.757 | 0.86 | 0.781 | 0.686 | 0.715 | 0.626 | 1.28 | 0.624 | 0.962 | 1 | 1 | 0.827 |
| NCI-H460 | 0.432 | 0.603 | 0.594 | 0.374 | 0.436 | 0.457 | 0.404 | 0.469 | 0.397 | 0.462 | 1.15 | 1.09 | 1.35 | 1.12 | 0.854 | 0.556 | 0.986 | 0.672 |
| LOU-NH91 | 0.764 | 0.732 | 0.721 | 0.775 | 0.868 | 1 | 0.902 | 0.974 | 0.95 | 1.01 | 0.53 | 0.493 | 0.441 | 0.523 | 0.921 | 0.778 | 0.96 | 1.01 |
| NCI-H322M | 0.804 | 0.73 | 0.843 | 0.779 | 0.798 | 0.715 | 0.82 | 0.743 | 0.737 | 0.687 | 1.13 | 1.32 | 1.4 | 1.35 | 0.94 | 0.976 | 1.02 | 1.04 |
| NCI-H520 | 0.844 | 1.08 | 0.884 | 0.896 | 0.875 | 0.37 | 0.32 | 0.367 | 0.302 | 0.264 | 0.576 | 0.391 | 0.96 | 0.432 | 0.941 | 0.875 | 1.12 | 0.815 |
| NCI-H661 | 0.693 | 0.628 | 0.601 | 0.588 | 0.657 | 0.734 | 0.7 | 0.799 | 0.731 | 0.65 | 0.84 | 0.931 | 0.81 | 0.849 | 0.538 | 0.63 | 0.612 | 0.61 |
| NCI-H727 | 0.683 | 0.66 | 0.629 | 0.547 | 0.597 | 0.666 | 0.707 | 0.764 | 0.79 | 0.634 | 0.884 | 0.709 | 0.968 | 0.626 | 0.234 | 0.356 | 0.295 | 0.269 |
| NCI-H1734 | 0.624 | 0.728 | 0.684 | 0.663 | 0.704 | 0.68 | 0.585 | 0.729 | 0.616 | 0.429 | 1.01 | 0.843 | 1.12 | 0.915 | 0.87 | 0.76 | 0.947 | 0.863 |
| LXF-289 | 1.07 | 1.03 | 1.04 | 1.03 | 1.08 | 1.13 | 1.03 | 1.1 | 1.15 | 1.04 | 0.98 | 0.908 | 1.02 | 0.963 | 0.962 | 0.92 | 1 | 0.972 |
| H3255 | 0.765 | 0.647 | 0.86 | 0.856 | 0.783 | 0.579 | 0.591 | 0.558 | 0.563 | 0.571 | 0.798 | 0.632 | 0.783 | 0.698 | 0.949 | 0.848 | 1.08 | 0.867 |
| 201T | 1.02 | 0.989 | 0.944 | 0.998 | 1.08 | 0.862 | 0.824 | 0.86 | 0.84 | 0.88 | 1.1 | 1.06 | 1.08 | 1.12 | 1.04 | 1.02 | 1.07 | 1.04 |
| NCI-H2228 | 0.656 | 0.866 | 0.806 | 0.698 | 0.631 | 0.813 | 0.635 | 0.711 | 0.567 | 0.647 | 1.07 | 1.11 | 1.31 | 1.11 | 0.627 | 0.573 | 0.824 | 0.957 |
| HOP-62 | 0.696 | 1.06 | – | 0.426 | 0.698 | 0.373 | 0.432 | 0.798 | 0.525 | 0.157 | 0.683 | 0.527 | 0.725 | 0.92 | 0.89 | 0.903 | 0.963 | 1.02 |
| CAL-12T | 1.17 | 1.49 | 1.38 | 1.25 | 0.952 | 0.654 | 0.661 | 0.697 | 0.725 | 0.65 | 0.942 | 0.858 | 1.12 | 0.768 | 0.69 | 0.777 | 1.04 | 0.814 |
| NCI-H596 | 0.435 | 0.47 | 0.551 | 0.477 | 0.491 | 0.755 | 0.645 | 0.671 | 0.754 | 0.782 | 1.19 | 1.11 | 1.01 | 1.04 | 1.09 | 0.968 | 1.25 | 1.14 |
| NCI-H1755 | 0.95 | 0.925 | 0.968 | 0.963 | 0.97 | 0.935 | 0.865 | 0.854 | 0.924 | 0.936 | 0.97 | 0.892 | 0.938 | 0.895 | 0.99 | 0.988 | 1.02 | 0.958 |
| NCI-H2085 | 0.968 | 0.785 | 0.894 | 0.975 | 0.851 | 0.794 | 0.81 | 0.772 | 0.818 | 0.551 | 1.14 | 0.944 | 1.08 | 0.996 | 0.856 | 1.04 | 0.938 | 0.794 |
